Data on 16 compounds can be found in patent US7420056B2, “Substituted bicyclic imidazo-3-ylamine compounds” (Gruenenthal GmbH, priority 2004, dated 2008).

The structures appear in SMILES notation.

As usually defined, the IC50 is the concentration needed to halve the response being measured. Low readings indicate greater potency in that assay, high ones weaker potency in that assay.

The target of one experiment is mGluR5 receptor (Sus scrofa, UniProt I3LUI7). The experiment in a line: Affinity for the mGluR5 receptor: inhibition of 3[H]-MPEP binding in pig brain homogenate. Particulars: 10 μM compound, 5 nM 3[H]-MPEP, read-out: mGluR5 receptor inhibition of ^3[H]-MPEP binding [10 μM] in % at a concentration of the example compounds of 10 μM. The method, then: 1. Method for Determining Affinity for the mGluR5 Receptor
mGluR5 receptor, sequence (I3LUI7 19-1212): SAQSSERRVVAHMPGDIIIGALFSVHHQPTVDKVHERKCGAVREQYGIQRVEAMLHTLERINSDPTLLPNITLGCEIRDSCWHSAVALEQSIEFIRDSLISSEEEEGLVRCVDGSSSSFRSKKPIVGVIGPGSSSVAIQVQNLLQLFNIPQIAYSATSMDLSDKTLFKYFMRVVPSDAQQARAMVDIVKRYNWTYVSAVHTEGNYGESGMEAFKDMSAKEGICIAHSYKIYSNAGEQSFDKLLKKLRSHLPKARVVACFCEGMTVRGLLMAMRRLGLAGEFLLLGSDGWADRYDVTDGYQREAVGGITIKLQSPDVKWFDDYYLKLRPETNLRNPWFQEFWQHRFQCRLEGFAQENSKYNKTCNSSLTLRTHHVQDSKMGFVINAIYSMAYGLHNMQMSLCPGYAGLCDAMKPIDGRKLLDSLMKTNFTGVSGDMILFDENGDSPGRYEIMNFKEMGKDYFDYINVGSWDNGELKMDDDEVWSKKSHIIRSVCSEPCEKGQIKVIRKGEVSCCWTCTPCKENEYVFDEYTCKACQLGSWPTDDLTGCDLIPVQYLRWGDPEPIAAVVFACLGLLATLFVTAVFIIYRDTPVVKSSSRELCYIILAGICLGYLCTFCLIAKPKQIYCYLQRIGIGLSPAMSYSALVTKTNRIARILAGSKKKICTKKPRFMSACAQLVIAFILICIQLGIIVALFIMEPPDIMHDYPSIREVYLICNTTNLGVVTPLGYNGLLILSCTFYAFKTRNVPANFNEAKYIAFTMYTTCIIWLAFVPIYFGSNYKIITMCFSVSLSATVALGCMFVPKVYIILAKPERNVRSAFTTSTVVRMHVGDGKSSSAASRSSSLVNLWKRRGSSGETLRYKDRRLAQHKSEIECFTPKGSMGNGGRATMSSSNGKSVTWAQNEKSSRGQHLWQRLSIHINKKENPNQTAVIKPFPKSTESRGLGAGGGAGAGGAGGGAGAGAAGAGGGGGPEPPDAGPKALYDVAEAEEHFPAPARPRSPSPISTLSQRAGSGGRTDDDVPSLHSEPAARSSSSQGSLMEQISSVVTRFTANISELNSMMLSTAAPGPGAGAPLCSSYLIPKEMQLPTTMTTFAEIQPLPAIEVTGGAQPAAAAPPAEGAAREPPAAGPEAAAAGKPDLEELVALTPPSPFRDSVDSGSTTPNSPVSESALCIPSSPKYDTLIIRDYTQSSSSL
Pig brain homogenate is produced by homogenisation (Polytron Pt 3000, Kinematica AG, 10,000 revolutions per minute for 90 seconds) of pig brain hemispheres without medulla, cerebellum and pons in a buffer of pH 8.0 (30 mM Hepes, Sigma, order number H3375+1 tablet Complete Roche Diagnostics, order number 1836145 made up to 100 ml) in a ratio of 1:20 (brain weight/volume) and differential centrifugation at 900×g and 40,000×g. 450 μg of protein from brain homogenate is incubated in each case in 250 μl incubation batches in 96-well microtitre plates with 5 nM 3[H]-MPEP (Tocris, order number R1212) (MPEP=2-methyl-6-[…]) and the compounds to be investigated (10 μM in the test) in the buffer (as above) at room temperature for 60 minutes.
The batches are then filtered with the assistance of a Brandel Cell Harvester (Brandel, Grade Robotic 9600) on Unifilter plates with glass filter mats (Perkin Elmer, order number 6005177) and then washed 3 times with buffer (as above) using 250 μl per sample. The filter plates are then dried for 60 minutes at 55° C. Then 30 μl of Ultima Gold™ scintillating material (Packard BioScience, order number 6013159) is added per well and after 3 hours the samples are measured using the β counter (Microbeta, Perkin Elmer). Nonspecific binding is determined by the addition of 10 μM MPEP (Tocris, order number 1212).
`C(#Cc1ccc(-c2nc3cnccn3c2N(Cc2cccnc2)Cc2cccnc2)s1)c1ccccc1` [Example 79, [2-(5-phenylethynyl-thiophen-2-yl)-imidazo[1,2-a]pyrazin-3-yl]-bis-pyridin-3-ylmethyl-amine]: the inhibition at 10 µM came out at 35%.
Consider `Nc1c(-c2ccc(C#Cc3ccccc3)s2)nc2cnccn12` [Example 83, 2-(5-phenylethynyl-thiophen-2-yl)-imidazo[1,2-a]pyrazin-3-ylamine], for which the inhibition at 10 µM was 35%.

The experiment is the same for the next values; noted with them: 3[H]-MPEP binding.
The compound `CN(C)c1c(-c2ccc(C#Cc3ccccc3)s2)nc2cnccn12` [Example 65, dimethyl-[2-(5-phenylethynyl-thiophen-2-yl)-imidazo[1,2-a]pyrazin-3-yl]-amine] gave a 50% inhibitory concentration (IC50) of 3840 nM.
Compound `CNc1c(-c2ccc(C#Cc3ccccc3)s2)nc2cnccn12` [Example 66, methyl-[2-(5-phenylethynyl-thiophen-2-yl)-imidazo[1,2-a]pyrazin-3-yl]-amine] registered an IC50 of 3170 nM.
`CC(=O)Nc1c(-c2ccc(C#Cc3ccccc3)s2)nc2cnccn12` [Example 67, N-[2-(5-phenylethynyl-thiophen-2-yl)-imidazo[1,2-a]pyrazin-3-yl]-acetamide] displayed a concentration for half-maximal inhibition (IC50) of 3840 nM. The IC50 values of the last two compounds are within 1.5-fold of each other.
In turn, `CCNc1c(-c2ccc(C#Cc3ccccc3)s2)nc2cnccn12` [Example 68, ethyl-[2-(5-phenylethynyl-thiophen-2-yl)-imidazo[1,2-a]pyrazin-3-yl]-amine] had an IC50 of 2320 nM. Against the preceding compound, the IC50 is about 1.7-fold lower.
Same read-out and setting: as for `CCCNc1c(-c2ccc(C#Cc3ccccc3)s2)nc2cnccn12` [Example 69, propyl-[2-(5-phenylethynyl-thiophen-2-yl)-imidazo[1,2-a]pyrazin-3-yl]-amine], the figure is 2930 nM; as for `CCCCNc1c(-c2ccc(C#Cc3ccccc3)s2)nc2cnccn12` [Example 70, butyl-[2-(5-phenylethynyl-thiophen-2-yl)-imidazo[1,2-a]pyrazin-3-yl]-amine], 1060 nM.
`CC(C)CNc1c(-c2ccc(C#Cc3ccccc3)s2)nc2cnccn12` [Example 71, (2-methylpropyl)-[2-(5-phenylethynyl-thiophen-2-yl)-imidazo[1,2-a]pyrazin-3-yl]-amine] returned an IC50 of 1270 nM.
`CCCCCNc1c(-c2ccc(C#Cc3ccccc3)s2)nc2cnccn12` [Example 72, pentyl-[2-(5-phenylethynyl-thiophen-2-yl)-imidazo[1,2-a]pyrazin-3-yl]-amine] yielded an IC50 of 5340 nM.
In turn, `COC(=O)CN(CC(=O)OC)c1c(-c2ccc(C#Cc3ccccc3)s2)nc2cnccn12` [Example 73, {(methoxycarbonylmethyl)-[2-(5-phenylethynyl-thiophen-2-yl)-imidazo[1,2-a]pyrazin-3-yl]-amino}-acetic acid methyl ester] registered a concentration for half-maximal inhibition (IC50) of 2210 nM.
The compound `C(#Cc1ccc(-c2nc3cnccn3c2NCc2ccccc2)s1)c1ccccc1` [Example 74, benzyl-[2-(5-phenylethynyl-thiophen-2-yl)-imidazo[1,2-a]pyrazin-3-yl]-amine] gave an IC50 of 1100 nM.
The compound `COC(=O)CNc1c(-c2ccc(C#Cc3ccccc3)s2)nc2cnccn12` [Example 75, [2-(5-phenylethynyl-thiophen-2-yl)-imidazo[1,2-a]pyrazin-3-ylamino]-acetic acid methyl ester] came in with an IC50 of 1290 nM.
The compound `CC(C)(C)Nc1c(-c2ccc(C#Cc3ccncc3)s2)nc2cnccn12` [Example 76, tert-butyl-[2-(5-pyridin-4-ylethynyl-thiophen-2-yl)-imidazo[1,2-a]pyrazin-3-yl]-amine] returned an IC50 of 3.7 nM.
Still for that read-out and setting: under `CC(C)(C)Nc1c(-c2ccc(C#Cc3ccccn3)s2)nc2cnccn12` [Example 77, tert-butyl-[2-(5-pyridin-2-ylethynyl-thiophen-2-yl)-imidazo[1,2-a]pyrazin-3-yl]-amine] stands 5.7 nM.
`CC(C)(C)Nc1c(-c2ccc(C#Cc3cccnc3)s2)nc2cnccn12` [Example 82, tert-butyl-[2-(5-pyridin-3-ylethynyl-thiophen-2-yl)-imidazo[1,2-a]pyrazin-3-yl]-amine]: the IC50 was 200 nM.
